Results published in US20230295292A1, “METHODS OF TREATING CANCERS AND ENHANCING EFFICACY OF GPRC5DXCD3 BISPECIFIC ANTIBODIES” (Janssen Biotech, Inc., priority 2021, published 2023).

Experiments:
T cells = test: Phase 1b TRIMM-2 study: biomarker / pharmacodynamic assessments (T cells, cytokines); type: in vivo, human
Source text: BM-localized MM cells were identified and analysed for cell surface marker expression levels by staining 1.0×10^6 cells/mL with HuMax-003 (CD38) FITC (this antibody binds to an epitope distinct from the epitope bound by daratumumab, Janssen Pharmaceuticals), CD138 PE, CD56 PC7, CD45 Krome Orange (all Beckman Coulter), CD269 (BCMA) APC (Biolegend), CD274 (PD-L1) BV421 and CD19 APC-H7 (both Becton Dickinson). BM or PB immune cell subsets were identified and analysed for cell surface marker expression levels by staining 1.0×10^6 cells/mL with CD45 Krome Orange, CD56 PC7 (both Beckman Coulter), CD14 APC-H7, CD19 APC-H7, CD3 V450, CD4 APC-H7 or PE, CD8 FITC, CD45-RA APC. CD127 PE.Cy7, CD62L PE, CD274 […] BV421, CD16 APC, HLA-DR APC-H7 (all Becton Dickinson) and CD25 PE (Dako) or with CD4 BUV395 (BD Biosciences), CD8 BUV737 (BD
Biosciences), PD-1 BV421 (BD Biosciences), TIM-3 BV650 (BD Biosciences), CD3 BV711 (BD Biosciences), CD45RO BV786 (BD Biosciences). CD38 Humab-003-FITC (Janssen). CD45RA PerCP-Cy5.5 (BD Biosciences). HLA-DR PE (BD Biosciences), LAG-3 PE-eF610 (ThermoFisher), CD25 PE-Cy7 (BD Biosciences), CCR7 AF647 (BD Biosciences), CD127 APC-eF780 (ThermoFisher). All BM samples were analysed within 24 hours from the time the sample was collected.
Flow cytometry was performed using a 7-laser LSRFORTESSA (Becton Dickinson). Fluorescent labeled beads (CS&T beads, Becton Dickinson) were used daily to monitor the performance of the flow cytometer and verify optical path and stream flow. […] Compensation beads were used to determine spectral overlap, and compensation was automatically calculated using Diva software. Flow cytometry data were analyzed using FACS Diva software.
Cytokines [interferon-gamma (IFN-γ), interleukin (IL)-2, IL-6, IL-8, IL-10, and tumor necrosis factor-alpha (TNF-α)] in the cell culture supernatants were analyzed using V-Plex proinflammatory Panel 1 Human Kit (Meso Scale Diagnostics), according to the manufacturer’s protocol. […]

[1] = Phase 1b TRIMM-2 study: pharmacokinetics (serum concentrations); type: in vivo, human; details: in the presence of daratumumab
Method: Blood and serum or plasma samples were collected for assessments of pharmacokinetics and immunogenicity (e.g., antibodies to daratumumab, rHuPH20, or talquetamab). Selection of the dose regimen (dose level and frequency) for dose expansion was determined based on the pharmacokinetic and pharmacodynamic information obtained during dose escalation. A sample for the pharmacokinetic and immunogenicity analysis was collected at scheduled time and any time a suspected IRR or CRS event (in case of a CRS event, samples were collected at onset, 24 hours and 72 hours) was observed during the study.
Each serum sample was evenly divided into 3 aliquots (1 for pharmacokinetics and immunogenicity of daratumumab, 1 for pharmacokinetics and immunogenicity of talquetamab, and 1 backup). […] For the pharmacokinetics analysis, serum samples were analyzed to determine concentrations of daratumumab and talquetamab using validated, specific, and sensitive assay methods. Pharmacokinetic parameters include, but are not limited to, area under the curve (AUC)(0-t), AUCtau, Cmax, and Tmax would be calculated if sufficient data were available for estimation. […] For the rHuPH20 immunogenicity assessments, plasma samples were screened for antibodies binding to rHuPH20 and were assessed in confirmatory and titer assays as necessary.

[2] = test system: relapsed or refractory multiple myeloma; test: Phase 1b TRIMM-2 study: best response by IMWG criteria, investigator assessment
Method: A phase 1b, open-label, multicenter, multi-cohort study of talquetamab in combination with subcutaneous (SC) dosing regimens of daratumumab administered to adult subjects with multiple myeloma was carried out. Two treatment combinations also included pomalidomide (and concomitant dexamethasone for at least the initial cycles). In the pomalidomide-containing treatment combinations, dexamethasone administration was required through the first 3 full immunomodulatory agent (IMiD)containing cycles to enhance IMiD-driven antimyeloma effects and serve as pretreatment medication for daratumumab and talquetamab. An overall aim of the study was to evaluate the safety of daratumumab in combination with talquetamab with or without pomalidomide (and concomitant dexamethasone at least in the initial cycles), and to evaluate preliminary antitumor activity. Safety was monitored by a Study Evaluation Team (SET).
The treatments were administered in 28-day cycles. Daratumumab was administered to all subjects by SC injection at a dose of 1800 mg as follows: weekly in Cycles 1-2, every 2 weeks (Q2W) in Cycles 3-6, and every 4 weeks thereafter. Note that a recombinant human hyaluronidase PH20 (rHuPH20) was used to decrease the injection volume required, facilitating the SC administration of daratumumab.
Daratumumab SC (Dara) was administered in combination with different dosage levels of talquetamab (Tal), including Dara 1800 mg + Tal 60 µg/kg SC weekly, Dara 1800 mg + Tal 400 µg/kg SC weekly. Dara 1800 mg + Tal 400 µg/kg SC biweekly starting Cycle 3 Day 1 (Tal 400 µg/kg SC weekly in Cycles 1-2), and Dara 1800 mg + Tal 800 µg/kg SC biweekly. Some subjects in the Dara 1800 mg + Tal 400 µg/kg SC weekly cohort switched to Tal 800 µg/kg biweekly SC dosing after Cycle 3 Day 1. Except for the 60 µg/kg talquetamab SC weekly cohort in which step-up dosing began on Cycle 1 Day 9, step-up doses for talquetamab began on Cycle 1 Day 2. When daratumumab and talquetamab were administered on the same day, daratumumab was administered first. Step-up Dose 1 of talquetamab was administered at least 20 hours after SC daratumumab. Subsequent step-up dose(s), if applicable, and first treatment dose of talquetamab were administered approximately 3 hours after SC daratumumab. Subsequent treatment doses of talquetamab was administered approximately 1 hour after SC daratumumab (when both study drugs are administered on the same day).
Disease evaluations would be performed by a central laboratory (additional samples may be collected for analysis by the local laboratory) until disease progression. […] Subjects that meet all other IMWG criteria for CR, and whose positive IFE is confirmed to be daratumumab interference, are considered complete responders. For subjects with light chain multiple myeloma, both serum and urine IFE and serum FLC assay were performed every 4 weeks. Additional serum samples may be utilized to monitor for potential daratumumab interference with the IFE and response adjudicated per IMWG-based response criteria. Quantitative immunoglobulin (QIg, e.g., IgG, IgA, IgM, IgE, and IgD), M-protein by electrophoresis (SPEP), FLC and IFE measurements in serum and urine and serum β-microglobulin were analyzed by the central laboratory. Disease progression based on one of the laboratory tests alone must be confirmed by at least 1 repeat investigation performed 1 to 3 weeks later. Disease evaluations would continue beyond relapse from CR until disease progression was confirmed. Serum and urine IFE and serum FLC assays would be performed at screening and thereafter when a CR or sCR is suspected (when serum or 24-hour urine M-protein electrophoresis [by SPEP or UPEP] are 0 or non-quantifiable). Development of hypercalcemia (corrected serum calcium >11 mg/dL) may indicate disease progression or relapse if it is not attributable to any other cause.

[3] = Tal 400 µg/kg (SC3 and SC6) + 800 µg/kg (SC7 and SC15) with Dara 1800 mg, 56 response evaluable subjects
[4] = Tal Total (all Tal cohorts with Dara, with or without Pom), n=108 evaluable

## talquetamab
T cells; FIG. 4, following talquetamab dosing in the presence of daratumumab 1800 mg
  Frequency of CD38+ T cells: increase
T cells; after the initial doses of talquetamab despite concurrent daratumumab dosing
  CD38+ CD8+ T cells: induction
[1]
  Pharmacokinetic profile of talquetamab: consistent with the profile of observed in the phase 1 talquetamab monotherapy
[2]; Overall Total, n=186 evaluable
  CR or better (sCR + CR): 46 (24.7%)
  Clinical benefit (Overall response + MR): 146 (78.5%)
  Complete response (CR): 28 (15.1%)
  Minimal response (MR): 0
  Not evaluable (NE): 1 (1.2%)
  Overall response (sCR+CR+VGPR+PR): 146 (78.5%)
  Partial response (PR): 22 (11.8%)
  Progressive disease (PD): 11 (5.9%)
  Stringent complete response (sCR): 18 (9.7%)
  VGPR or better (sCR + CR + VGPR): 124 (66.7%)
  Very good partial response (VGPR): 78 (41.9%)
  Very good partial response (VGPR), Unconfirmed: 11
[2]; [3]
  CR or better (sCR + CR): 16 (28.6%)
  Clinical benefit (Overall response + MR): 45 (80.4%)
  Complete response (CR): 9 (16.1%)
  Complete response (CR), Unconfirmed: 3
  Minimal response (MR): 0
  Not evaluable (NE): 0
  Overall response (sCR+CR+VGPR+PR): 45 (80.4%)
  Partial response (PR): 9 (16.1%)
  Partial response (PR), Unconfirmed: 4
  Progressive disease (PD): 3 (5.4%)
  Stringent complete response (sCR): 7 (12.5%)
  Stringent complete response (sCR), Unconfirmed: 0
  VGPR or better (sCR + CR + VGPR): 36 (64.3%)
  Very good partial response (VGPR): 20 (35.7%)
  Very good partial response (VGPR), Unconfirmed: 5
[2]; [4]
  CR or better (sCR + CR): 28 (25.9%)
  Clinical benefit (Overall response + MR): 89 (82.4%)
  Complete response (CR): 14 (13.0%)
  Minimal response (MR): 0
  Not evaluable (NE): 0
  Overall response (sCR+CR+VGPR+PR): 89 (82.4%)
  Partial response (PR): 18 (16.7%)
  Progressive disease (PD): 4 (3.7%)
  Stringent complete response (sCR): 14 (13.0%)
  VGPR or better (sCR + CR + VGPR): 71 (65.7%)
  Very good partial response (VGPR): 43 (39.8%)
  Very good partial response (VGPR), Unconfirmed: 13

## daratumumab: anti-CD38 monoclonal antibody approved for MM treatment; HC SEQ ID NO: 13, LC SEQ ID NO: 14; given SC with rHuPH20 [reference compound]
T cells; after initial daratumumab dosing on C1D1
  Proportion of CD38+/CD8+ T cells: declined
